Data on six compounds can be found in PMC11951083, “Highly Specific Miniaturized Fluorescent Monoacylglycerol Lipase Probes Enable Translational Research” (Journal of the American Chemical Society, 2025).

Usually inhibition stands for the relative decrease from the control value, in per cent. One may read the residence time as how long the partners stay bound on average. As a reminder, the Kd is the concentration at which binding is half-saturated. A higher Kd goes with a looser complex.

The target in assay [1] is beta1 (h) (Homo sapiens, UniProt P08588). Put plainly: beta1 (h) (agonist radioligand). Particulars: read-out: Inhibition beta1 (h) (agonist radioligand).
Chain of beta1 (h) (P08588 whole entry): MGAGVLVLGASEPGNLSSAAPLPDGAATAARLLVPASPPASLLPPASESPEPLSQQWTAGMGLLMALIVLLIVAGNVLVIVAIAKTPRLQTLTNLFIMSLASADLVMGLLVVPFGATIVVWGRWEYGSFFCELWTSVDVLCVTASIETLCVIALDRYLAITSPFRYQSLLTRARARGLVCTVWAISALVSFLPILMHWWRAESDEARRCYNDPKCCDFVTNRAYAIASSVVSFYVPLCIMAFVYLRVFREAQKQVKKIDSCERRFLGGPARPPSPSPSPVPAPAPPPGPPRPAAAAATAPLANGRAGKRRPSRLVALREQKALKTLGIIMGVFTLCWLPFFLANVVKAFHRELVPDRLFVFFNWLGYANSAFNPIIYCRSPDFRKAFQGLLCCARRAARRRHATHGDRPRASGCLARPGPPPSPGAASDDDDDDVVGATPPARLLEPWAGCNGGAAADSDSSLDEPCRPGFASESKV
The target of assay [2] is acetylcholinesterase (h) (Homo sapiens, UniProt P22303). Put plainly: acetylcholinesterase (h). The note with it: read-out: Inhibition acetylcholinesterase (h).
Chain of acetylcholinesterase (h) (P22303 32-614): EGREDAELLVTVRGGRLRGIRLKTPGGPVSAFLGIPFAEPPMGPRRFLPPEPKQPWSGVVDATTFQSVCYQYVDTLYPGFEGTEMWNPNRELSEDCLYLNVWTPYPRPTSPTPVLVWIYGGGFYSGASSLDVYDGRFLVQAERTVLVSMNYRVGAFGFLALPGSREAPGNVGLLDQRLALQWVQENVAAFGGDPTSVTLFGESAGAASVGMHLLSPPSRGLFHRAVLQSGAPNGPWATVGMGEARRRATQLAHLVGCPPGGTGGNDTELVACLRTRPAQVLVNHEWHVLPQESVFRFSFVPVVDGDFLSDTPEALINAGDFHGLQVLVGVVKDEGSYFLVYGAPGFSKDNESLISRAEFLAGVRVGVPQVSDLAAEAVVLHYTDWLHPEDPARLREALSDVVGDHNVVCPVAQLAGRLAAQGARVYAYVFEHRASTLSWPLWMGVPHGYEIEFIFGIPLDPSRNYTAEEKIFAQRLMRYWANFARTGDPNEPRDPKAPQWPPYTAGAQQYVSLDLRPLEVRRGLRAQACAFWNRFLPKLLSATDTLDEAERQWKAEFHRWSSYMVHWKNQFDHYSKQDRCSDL
Assay [3] concerns the target mu (MOP) (h) (Homo sapiens, UniProt P35372). Put plainly: mu (MOP) (h) (agonist radioligand). Particulars: read-out: Inhibition mu (MOP) (h) (agonist radioligand).
In assay [4] the target is T1, MAGL (Homo sapiens, UniProt Q99685).
T1 sequence (Q99685 1-303): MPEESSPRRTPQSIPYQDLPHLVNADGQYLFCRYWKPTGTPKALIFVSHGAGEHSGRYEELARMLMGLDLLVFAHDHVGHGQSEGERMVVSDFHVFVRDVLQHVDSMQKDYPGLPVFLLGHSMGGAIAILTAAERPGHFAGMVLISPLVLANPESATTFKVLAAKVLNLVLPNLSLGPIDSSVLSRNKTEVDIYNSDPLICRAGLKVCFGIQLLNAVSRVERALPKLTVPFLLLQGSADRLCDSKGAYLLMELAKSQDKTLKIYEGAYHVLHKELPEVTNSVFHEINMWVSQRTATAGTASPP
Put plainly: Surface plasmon resonance on human MAGL. Format: binding. Particulars: SPR. On the procedure: High throughput kinetic solubility measurement was performed as previously described in the […]
Surface plasmon resonance
EDC/NHS coupling with a final protein concentration of 0.06 mg/mL: 10 mM acetate pH 5.5 + 10µM RO7224999-000-001(reference binder). No quenching was applied after immobilization, but the surface was left with a running buffer for 1 h to hydrolyze and stabilize.
Running buffer: […], 150 mM NaCl, 0.05% P20, pH 7.4 + 50 µM EDTA, 1% DMSO Instrument:
Biacore T200 Sensorchip: CM5 Temperature: 18 °C concentration series: 5 concentration 3-fold dilution, top conc 0.5 µM, contact time 180s, dissociation time 300s before each compound a blank injection for double referencing was measured. Each compound was followed by 9 injections of Control, RO7283571 (60 s contact time, 200 s dissociation time, 10 µM) to validate surface activity and recovery to determine off rates.
Dissociation was trimmed for compounds showing faster kinetics to suppress the over-fitting of baseline drift. Data was fitted with 1:1 model with an added drift parameter to improve fit quality and to compensate from insufficient drift correction with the double referencing. Off rates (koff) were determined by recovery of reference binding. The signal was first blank subtracted, and the corrected chaser response was plotted versus time and fitted to an exponential decay model. […]
In general terms: In SPR one partner is held on a chip, and binding of the other changes the refractive index at the surface.

For assay [5], the target named is T1, MAGL. Put plainly: Fluorescence polarization titration of probe 5 with purified hMAGL. Particulars: FP titration, probe 20 nM. It is filed as binding. Here is the method:
Fluorescence Polarization Assay
Determination of the Kd of the fluorescent probes
Commercially available purified hMAGL protein (Cepter Biopartners, Nutley, NJ, USA) was diluted in PBS-buffer pH 7.4 + 0.1% Tween 80, in a range of concentrations and incubated with compound 5 (20 nM = [L]T) at ambient temperature for 60 min. Fluorescence polarization was determined via a Tecan Spark multimode plate reader (Ex/Em = 482/502 nm , 7.5 nm bandwidth each) in a 384 flat black well plate (Corning); six measurements per data point. The experiment was carried out in triplicate. Data were analyzed via GraphPad Prism 5.0 software. K d of the fluoroprobe was calculated from the observed MAGL concentration at half-maximal FP (FP50) as follows.
K = [L][P] = 0.5 [L]T (FP50 − 0.5 [L]T) = FP − 0.5 [L]
Competitive FP Binding Assay hMAGL in PBS-buffer pH 7.4 + 0.1% tween 80 at a final concentration of 50 nM was incubated with a range of inhibitor DMSO solutions (5µL) (serial dilution 1:3) for 30 min at ambient temperature in a 384 flat black well plate (Corning). […] After 30 min incubation at ambient temperature, fluorescence polarization was determined as described above. Data were analyzed via GraphPad Prism 5.0 software, and IC50 values were converted to Ki according to Nikolovska-Coleska et al. 28 Under these conditions the assay performed with an average z´= 0.90. […]

Chain of mu (MOP) (h) (P35372 whole entry): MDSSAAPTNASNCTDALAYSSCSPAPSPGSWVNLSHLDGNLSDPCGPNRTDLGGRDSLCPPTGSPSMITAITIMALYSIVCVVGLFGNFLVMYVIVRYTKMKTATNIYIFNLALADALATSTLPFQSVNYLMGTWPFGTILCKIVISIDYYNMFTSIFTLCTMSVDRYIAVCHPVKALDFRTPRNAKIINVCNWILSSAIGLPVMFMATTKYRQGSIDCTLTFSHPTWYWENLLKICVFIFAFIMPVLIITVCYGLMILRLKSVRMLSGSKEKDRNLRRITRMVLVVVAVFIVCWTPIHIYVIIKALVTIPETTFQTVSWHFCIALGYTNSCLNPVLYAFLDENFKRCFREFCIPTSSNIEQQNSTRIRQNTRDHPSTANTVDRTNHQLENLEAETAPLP

Take `O=C(O[C@H](CO)C(F)(F)F)N1CC2(CC(CC3=C4C=CC=[N+]4[B-](F)(F)n4cccc43)C2)C1` [Compound 1]: the figures for the inhibition at 10 µM in assay [1], in assay [2] and in assay [3] were -3.3%, -8.2% and 4%, respectively.

On to `O=C(OC(C(F)(F)F)C(F)(F)F)N1CC2(CC(CC3=C4C=CC=[N+]4[B-](F)(F)n4cccc43)C2)C1` [Compound 2], for which the inhibition at 10 µM was -1.7% in assay [1], -2.9% in assay [2] and -0.4% in assay [3].

For `O=C(OC(C(F)(F)F)C(F)(F)F)N1CC2(CC(CC3=C4C=CC(c5ccc[nH]5)=[N+]4[B-](F)(F)n4cccc43)C2)C1` [Compound 2a], the inhibition at 10 µM is -3.3% in assay [1], 2.5% in assay [2] and 7.6% in assay [3].

In assay [4], `O=C1CO[C@H]2CCN(C(=O)N3CC4(CC(CC5=C6C=CC=[N+]6[B-](F)(F)n6cccc65)C4)C3)C[C@H]2N1` [Compound 4] had a residence time of 37 min.

Regarding `O=C1CO[C@H]2CCN(C(=O)N3CC4(CC(CC5=C6C=CC(c7ccc[nH]7)=[N+]6[B-](F)(F)n6cccc65)C4)C3)C[C@H]2N1` [Compound 4a], the inhibition at 10 µM is -1.2% in assay [1], 1.8% in assay [2] and 11% in assay [3].

With `O=C(N1CC2(CC(CC3=C4C=CC=[N+]4[B-](F)(F)n4cccc43)C2)C1)N1CC2(CC(n3cnc(C4CC4)n3)C2)C1` [Compound 5], the values for the inhibition at 10 µM in assay [1], in assay [2] and in assay [3] were 0.6%, -14.4% and 8.5%, respectively. In addition, binding in assay [5] was put at a Kd of 6.65 nM. For the same compound, in assay [4], the residence time is 44 min.
